# Values joined by “and” are separate entries in the source; they are usually repeats but may differ in a detail not shown here. Identical values can stand only once.
# How the values were obtained:
# TNF-α = assay: in vivo imaging of TNF-α expression, carrageenan-induced TNF-luc mice; set-up: species or system BALB/c transgenic TNF-luc mice; conditions: Adalimumab 8 mg/kg, mPEG-SC20k-HM-3 20 mg/kg sc
# Procedure: At 8 time points, hour 0, hour 2, hour 4, hour 8, hour 12, hour 24, hour 48 and hour 72 after modeling, fluorescein is injected intraperitoneally into each group of mice. After the mice are lightly anesthetized with ether, the mice are fixed within 5-20 min and put into an in vivo imager, the imager is covered with an instrument lid, on-fluro and om-photo names in the desktop imaging interface of the computer are clicked, and the expose button is clicked to complete the fluorescence and white light photos of mice in vivo imaging. The specific imaging principle, operation steps, image processing and output are the same as those in the previous embodiment.
# In vivo imaging results of mice are processed with Carestream Molecular Imaging Software 5.3, and the luminous area is used as the determination of results. The fluorescence areas of the groups after optimization are compared.
# (1) Imaging principle: Fluorescein substrate is injected intraperitoneally, and binds to luciferase carried on TNF-α protein to catalyze luminescence. Through the Luciferase fluorescent reporter group on TNF, the change of the fluorescence area in mice is observed, and the expression of TNF-α is evaluated, so as to evaluate the impact of mPEG-SC20k-HM-3 on the expression of TNF-α.
# (2) Operation steps: Start the Carestreama in vivo imager, open the MI software, click the Capture button, and set photographing conditions. In the on-flour fluorescence mode, set the parameters X Binning. 2 pixels, Y Binning. 2 pixels; Illumination Source: Multi-wavelength; f-stop: 2.50; field of view (FOV) (mm): 120; focal plane (mm): Tray. Excitation filter: 430 nm, emission filter: 535 nm; exposure time: 30s. Click the Expose button to photograph fluorescence. Under the om-photo name, set the parameters X Binning. 0 pixels, Y Binning. 0 pixels; Illumination Source: None; f-stop: 2.50; FOV (mm): 120; focal plane (mm): Tray. Excitation filter: 0 nm, emission filter: 0 nm; exposure time: 0.175 s. Click the Expose button to photograph white light.
# (3) Image processing and output: Analyze and adjust photos of fluorescence function imaging and white light structure imaging to the best, and the FOV is consistent. Click Window→Tie, Display→Invert, Image Display→overlay→Transparency for image stacking. In the image output process, in a navigation panel, click Annotation→Width/Heigh→Scale Analysis Image for setting, click Add Annotation Bar for adding a title, click Add Intensity Scale for adding a ruler, and set Horizontal, Size, Style, Number of Significant Dig, and Horizontal/Vertical Length. Output a picture in Tiff format.
# [1] = test system: AIA transgenic TNF-luc mice; assay: adjuvant-induced arthritis in transgenic TNF-luc mice (swelling, scores, weight, HE staining); assay type: in vivo, BALB/c transgenic TNF-luc mice; set-up: right ankle swelling / left ankle swelling / left toe swelling / right toe swelling / changes of weight (added value): unit not given here; conditions: Adalimumab 8 mg/kg
# Procedure: 8 animals are randomly divided into 4 groups (n=2), a normal group, a model group, a positive drug group and a test group. On day 0, the initial left and right ankle thicknesses, initial left and right foot palm thicknesses and initial left and right toe thicknesses of each group of mice are measured. On day 0, 50 μL/mouse complete Freund's adjuvant is injected into the bottom of the left toe of each group of mice, and the treatment is started after secondary inflammation appears in the right foot of each group of mice on day 17. On day 17, the normal group and the model group are hypodermically injected with 0.9% normal saline (0.2 mL/20 g of body weight), once every 2 days, 7 times in total. The positive drug Adalimumab group is hypodermically injected with Adalimumab (8 mg/kg of body weight), once every 15 days, once in total. The test group is hypodermically injected with mPEG-SC20k-HM-3 (20 mg/kg of body weight), once every 2 days, 7 times in total. The treatment lasts for 15 days. Then, medication is stopped for observation for one week, and the mice are killed one week later.
# On day 0, the initial ankle widths, foot palm widths and toe thicknesses of left and right feet are measured with a vernier caliper as initial values. Every 2 days, the left and right ankle widths, foot palm widths and toe thicknesses of each group of mice are measured separately with the vernier caliper, and compared with the initial values to calculate the changes in the swelling degree.
# The joints of the mouse paw are observed with naked eyes, and the joints are scored every 2 days from day 17. Scoring is performed in terms of level 0 to level 4, 5 levels in total.
# After the secondary inflammation appears, systemic scoring is performed every 2 days.
# Changes of expression of TNF-α and IL-6 are analyzed by HE staining and immunohistochemistry in the ankle joint, spleen and thymus of the mice. Observation and photographing are performed under the FOVs of ×200 and ×400 times respectively, 5 FOVs are taken randomly for each picture, and data statistics is performed.
# [2] = 0 d, before treatment (starts day 17), mPEG-SC20k-HM-3 20 mg/kg groups
# [3] = 1 d, before treatment (starts day 17), mPEG-SC20k-HM-3 20 mg/kg groups
# [4] = 3 d, before treatment (starts day 17), mPEG-SC20k-HM-3 20 mg/kg groups
# [5] = 6 d, before treatment (starts day 17), mPEG-SC20k-HM-3 20 mg/kg groups
# [6] = 9 d, before treatment (starts day 17), mPEG-SC20k-HM-3 20 mg/kg groups
# [7] = 12 d, before treatment (starts day 17), mPEG-SC20k-HM-3 20 mg/kg groups
# [8] = 16 d, before treatment (starts day 17), mPEG-SC20k-HM-3 20 mg/kg groups
# [9] = 17 d (treatment starts), mPEG-SC20k-HM-3 20 mg/kg sc
# [10] = 19 d, mPEG-SC20k-HM-3 20 mg/kg sc
# [11] = 20 d, mPEG-SC20k-HM-3 20 mg/kg sc
# [12] = 22 d, mPEG-SC20k-HM-3 20 mg/kg sc
# [13] = 23 d, mPEG-SC20k-HM-3 20 mg/kg sc
# [14] = 25 d, mPEG-SC20k-HM-3 20 mg/kg sc
# [15] = 26 d, mPEG-SC20k-HM-3 20 mg/kg sc
# [16] = 28 d, mPEG-SC20k-HM-3 20 mg/kg sc
# [17] = 29 d, mPEG-SC20k-HM-3 20 mg/kg sc
# [18] = 31 d, mPEG-SC20k-HM-3 20 mg/kg sc
# [19] = 32 d, mPEG-SC20k-HM-3 20 mg/kg sc
substance,measurement,setting,value
Adalimumab [reference compound],Fluorescence intensity (in vivo imaging),TNF-α; 0 h,18.048 ± 4.770 ×10^5
same,Fluorescence intensity (in vivo imaging),TNF-α; 2 h,18.480 ± 4.887 ×10^5
same,Fluorescence intensity (in vivo imaging),TNF-α; 4 h,20.209 ± 2.261 ×10^5
same,Fluorescence intensity (in vivo imaging),TNF-α; 8 h,25.70±2.67 ×10^5 and 25.703 ± 2.668 ×10^5
same,Fluorescence intensity (in vivo imaging),TNF-α; 12 h,22.40±5.06 ×10^5 and 22.396 ± 5.065 ×10^5
same,Fluorescence intensity (in vivo imaging),TNF-α; 24 h,13.89±8.53 ×10^5 and 13.891 ± 0.853 ×10^5
same,Fluorescence intensity (in vivo imaging),TNF-α; 48 h,14.76±3.58 ×10^5 and 14.765 ± 3.580 ×10^5
same,Fluorescence intensity (in vivo imaging),TNF-α; 72 h,19.87±3.92 ×10^5 and 19.868 ± 3.924 ×10^5
same,changes of weight (added value),[1]; [2],0.00 ± 0.00
same,left ankle swelling,[1]; [2],0.000 ± 0.000
same,left foot (palm) swelling,[1]; [2],0.000 ± 0.000
same,left toe swelling,[1]; [2],0.000 ± 0.000
same,left ankle swelling,[1]; [3],0.239 ± 0.033
same,left foot (palm) swelling,[1]; [3],0.236 ± 0.062
same,left toe swelling,[1]; [3],0.326 ± 0.028
same,changes of weight (added value),[1]; [4],0.07 ± 0.15
same,left ankle swelling,[1]; [4],0.262 ± 0.071
same,left foot (palm) swelling,[1]; [4],0.289 ± 0.016
same,left toe swelling,[1]; [4],0.323 ± 0.086
same,changes of weight (added value),[1]; [5],0.09 ± 0.54
same,left ankle swelling,[1]; [5],0.226 ± 0.023
same,left foot (palm) swelling,[1]; [5],0.272 ± 0.057
same,left toe swelling,[1]; [5],0.272 ± 0.076
same,changes of weight (added value),[1]; [6],0.07 ± 0.25
same,left ankle swelling,[1]; [6],0.260 ± 0.020
same,left foot (palm) swelling,[1]; [6],0.302 ± 0.003
same,left toe swelling,[1]; [6],0.298 ± 0.122
same,changes of weight (added value),[1]; [7],0.25 ± 0.83
same,left ankle swelling,[1]; [7],0.264 ± 0.018
same,left foot (palm) swelling,[1]; [7],0.295 ± 0.021
same,left toe swelling,[1]; [7],0.328 ± 0.079
same,changes of weight (added value),"[1]; 15 d, before treatment (starts day 17), mPEG-SC20k-HM-3 20 mg/kg groups",0.16 ± 0.66
same,left ankle swelling,[1]; [8],0.265 ± 0.021
same,left foot (palm) swelling,[1]; [8],0.271 ± 0.064
same,left toe swelling,[1]; [8],0.328 ± 0.065
same,right ankle swelling,[1]; [8],0.010 ± 0.006
same,right foot palm swelling,[1]; [8],0.010 ± 0.006
same,right toe swelling,[1]; [8],0.011 ± 0.033
same,joint index score,[1]; [9],7.50 ± 0.70
same,whole body (systemic) score,[1]; [9],7.00 ± 1.40
same,changes of weight (added value),[1]; [10],0.44 ± 0.60
same,left ankle swelling,[1]; [10],0.254 ± 0.018
same,left foot (palm) swelling,[1]; [10],0.247 ± 0.078
same,left toe swelling,[1]; [10],0.311 ± 0.033
same,right ankle swelling,[1]; [10],0.010 ± 0.014
same,right foot palm swelling,[1]; [10],0.029 ± 0.001
same,right toe swelling,[1]; [10],0.012 ± 0.037
same,joint index score,[1]; [11],7.50 ± 0.70
same,whole body (systemic) score,[1]; [11],6.50 ± 2.10
same,changes of weight (added value),[1]; [12],0.62 ± 0.48
same,left ankle swelling,[1]; [12],0.235 ± 0.013
same,left foot (palm) swelling,[1]; [12],0.249 ± 0.126
same,left toe swelling,[1]; [12],0.248 ± 0.136
same,right foot palm swelling,[1]; [12],0.004 ± 0.003
same,right toe swelling,[1]; [12],0.002 ± 0.042
same,joint index score,[1]; [13],8.00 ± 0.00
same,whole body (systemic) score,[1]; [13],4.50 ± 2.10
same,changes of weight (added value),[1]; [14],0.55 ± 0.02
same,left ankle swelling,[1]; [14],0.218 ± 0.028
same,left foot (palm) swelling,[1]; [14],0.234 ± 0.040
same,left toe swelling,[1]; [14],0.309 ± 0.058
same,right foot palm swelling,[1]; [14],0.013 ± 0.016
same,right toe swelling,[1]; [14],0.004 ± 0.040
same,joint index score,[1]; [15],6.50 ± 0.70
same,whole body (systemic) score,[1]; [15],4.00 ± 1.40
same,changes of weight (added value),[1]; [16],0.77 ± 0.33
same,left foot (palm) swelling,[1]; [16],0.258 ± 0.042
same,left toe swelling,[1]; [16],0.285 ± 0.075
same,right foot palm swelling,[1]; [16],0.008 ± 0.006
same,right toe swelling,[1]; [16],0.009 ± 0.035
same,joint index score,[1]; [17],6.50 ± 0.70
same,whole body (systemic) score,[1]; [17],4.00 ± 1.40
same,changes of weight (added value),[1]; [18],1.02 ± 0.98
same,left foot (palm) swelling,[1]; [18],0.235 ± 0.061
same,left toe swelling,[1]; [18],0.290 ± 0.023
same,right foot palm swelling,[1]; [18],0.010 ± 0.003
same,right toe swelling,[1]; [18],0.003 ± 0.021
same,joint index score,[1]; [19],6.50 ± 0.70
same,whole body (systemic) score,[1]; [19],3.50 ± 0.70
same,HE staining of ankle joints: pathological symptoms vs model group,[1]; mPEG-SC20k-HM-3 20 mg/kg,relieved to some extent
